Reference: paper PMC4533973, “Synthesis and Evaluation of Chloramphenicol Homodimers: Molecular Target, Antimicrobial Activity, and Toxicity against Human Cells” (PLoS ONE, 2015)
Read-outs that look alike come from different tables or passages of the source.

Tests used:
[1] = system: post-translocation ribosomal complex (complex C) derived from E. coli; test: Inhibition of peptide-bond formation (puromycin reaction, AcPhe-puromycin synthesis); type: biochemical; conditions: for Ki: 25°C, buffer A; for k off: nonlinear regression of k eq
Method: The inhibitory effect of CAM dimers on peptide-bond formation was studied using the puromycin reaction, a model reaction between puromycin and a post-translocation ribosomal complex (complex C) derived from E. coli. Since puromycin, a pseudo-substrate of PTase which binds to the A-site of the catalytic center, was present in excess, the reaction obeyed first-order kinetics. The first-order rate constant, k obs, at each concentration of puromycin was determined by fitting the x values into Eq 1, ln100/100−x=kobst (1) where x is the product AcPhe-puromycin, expressed as the percentage of complex C added in the reaction mixture, and t is the time of the reaction.
A representative time plot obtained at 400 μM puromycin, in the absence of inhibitor, is illustrated in Fig 3A (upper line) and, as expected, is characterized by linearity. However, when the reaction proceeded in the presence of a CAM dimer, e.g. compound 5, the time plots were characterized by two unique features that distinguish them from a typical kinetic behavior. […] Second, the slopes of both progress curves varied as a function of the inhibitor concentration (Fig 3A, four lower curves). […] These kinetic results are consistent with compound 5 operating through an induced fit mechanism (Fig 3C), in which the inhibitor first binds rapidly to complex C to form the encounter complex CI, which then undergoes a slow conformational change to produce a final, tighter complex C*I. Corroborative evidence for the consistency of this model is provided by the hyperbolic shape of the equilibration plots (k eq versus [I]), in which k eq represents the apparent rate constant for the attainment of equilibrium among C, CI, and C*I (Fig 3B). If one-step mechanism of inhibition was applicable (C + I ⇄ C*I), k eq should be a linear function of [I] [27]. […] Because the isomerization constant k on/k off was calculated to be 3.6, the inhibition process was finally associated with high overall inhibition of peptide-bond formation (Ki* = 0.3 μM; S1 Fig, panel C). In addition, the slow k off rate (0.64 min^-1) provided prolonged residence time for compound 5 at the ribosome, a behavior potentially predicting good efficacy in vivo [28].
The puromycin reaction, i.e. the reaction between complex C and excess puromycin (S), was carried out at 25°C in buffer A [100 mM Tris-HCl pH 7.2, 6 mM (CH3COO)2Mg, 100 mM NH4Cl and 6 mM 2-mercaptoethanol]. Under these conditions, the puromycin reaction obeys C + S ⇄KS CS→kcat C^′ + S pseudo-first-order kinetics and was analyzed as previously described.
In the presence of CAM dimers, biphasic semi-logarithmic time plots were obtained. The slope of the straight line through the origin was seen as the value of the apparent rate constant, k obs(early), at the early phase of the reaction. Similarly, the slope of the second straight line was taken as the apparent rate constant, k obs(late), at the late phase of the puromycin reaction.

P. aeruginosa (GRE5288) = test: Antibacterial activity (growth inhibition, EC50); type: cell-based, Pseudomonas aeruginosa; conditions: Pseudomonas aeruginosa
Text: (§1) A.S. Mankin (University of Illinois). E. coli ΔtolC strain BL21 DE3 with impaired AcrAB-TolC, a proton-dependent MDR efflux pump causing multidrug resistance, was offered by Dr D.N. Wilson (University of Munich) and included in our study to test if this mechanism of resistance affects the efficacy of CAM dimers. […] I. Spiliopoulou (National Reference Laboratory for Staphylococci, School of Medicine, University of Patras, Greece). Finally, E. coli strain Rosetta(DE3)pLysS, containing a chloramphenicol resistant gene in the pLysS plasmid, was purchased from Novagen and was also included in our study. Briefly, S. aureus or E. coli cells (200 μl of a 0.700 OD560 preculture) containing wild-type or mutant ribosomes were added in 3.8 ml of LB (Luria-Bertani) medium and grown at 37°C in the presence or absence of CAM or CAM dimers until the optical density of the control culture (grown in the absence of drug) reached the value 0.700 at 560 nm. For E. faecium and P. aeruginosa cultures, TSB (Tryptic Soy Broth) medium was used, instead of LB medium, in order to achieve exponential doubling times between 25 and 35 minutes. From dose-response curves, the half-maximal effective concentration (EC50) for each compound and strain was estimated. EC50 represents the molar concentration of a compound that produces 50% of the maximal possible effect. The EC50 values were mathematically determined by non linear regression fitting of the observed culture optical-density values, expressed as the percentage of 0.700 (y), into Hill Equation, y=min+max−min/1+(x/EC50)^−n where min and max are the lowest and highest observed values of the culture optical density, respectively, x the concentration of the tested compound, and n the Hill coefficient that represents the largest absolute value of the curve slope. EC50 is equal to the x- value of the sigmoid’s midpoint. Fitting was performed using the Four Parameter Logistic Curve of the SigmaPlot Program Version 11.0 (Systat Software, Inc) for Exact Graphs and Data Analysis.

E. coli (A2058G) = test: Antibacterial activity (growth inhibition, EC50); type: cell-based, Escherichia coli; conditions: for EC50: Escherichia coli
Text: as §1

E. coli (WT) = test: Antibacterial activity (growth inhibition, EC50); type: cell-based, Escherichia coli; conditions: for EC50: Escherichia coli, LB medium, 37°C, OD560; for EC50(cell growth)/IC50(puro): wild-type E. coli, IC50(puro) calculated from Ki* at 2 mM puromycin
Text: as §1

E. coli (ΔtolC) = test: Antibacterial activity (growth inhibition, EC50); type: cell-based, Escherichia coli; conditions: Escherichia coli, BL21-DE3
Text: as §1

E. coli (A2503C) = test: Antibacterial activity (growth inhibition, EC50); type: cell-based, Escherichia coli; conditions: for EC50: Escherichia coli
Text: as §1

[2] = system: E. coli Rosetta(DE3)pLysS; test: Antibacterial activity (growth inhibition, EC50); type: cell-based, Escherichia coli; conditions: for EC50: Escherichia coli
Text: as §1

MRSA (GRE2691) = test: Antibacterial activity (growth inhibition, EC50); type: cell-based; conditions: Staphylococcus aureus
Text: as §1

S. aureus (WT) = test: Antibacterial activity (growth inhibition, EC50); type: cell-based; conditions: Staphylococcus aureus
Text: as §1

E. faecium (GRE5152) = test: Antibacterial activity (growth inhibition, EC50); type: cell-based; conditions: Enterococcus faecium
Text: as §1

MRSA (GRE2272) = test: Antibacterial activity (growth inhibition, EC50); type: cell-based; conditions: Staphylococcus aureus
Text: as §1

[3] = overall inhibition constant (CI + C*I)
[4] = LB medium, 37°C, OD560, read-out: EC50

| Compound | Ki ([1]; encounter complex CI) [µM] | k off [1] [s⁻¹] | Ki [1, 3] [µM] | EC50 (E. coli (A2058G)) [µM] | EC50 (E. coli (WT)) [µM] | EC50(cell growth)/IC50(puro) (E. coli (WT)) | EC50 (E. coli (ΔtolC)) [µM] | EC50 (E. coli (A2503C)) [µM] | EC50 [2] [µM] | further results |
| --- | --- | --- | --- | --- | --- | --- | --- | --- | --- | --- |
| O=C(CCCCC(=O)N[C@H](CO)[C@H](O)c1ccc([N+](=O)[O-])cc1)N[C@H](CO)[C@H](O)c1ccc([N+](=O)[O-])cc1 [Compound 4, N^1,N^6-Bis((1R,2R)-1,3-dihydroxy-1-(4-nitrophenyl)propan-2-yl)adipamide] | 6 ± 0.54 | 0.0167 ± 0.00067 | 1.87 ± 0.15 | 97 ± 3.3 | 83.6 ± 6.2 | 7.45 ± 0.81 | 98 ± 16.3 | > 100 | > 200 | activity compared to CAM ([1]; ranking by K i*): lower; fold less efficient than compound 5 ([1]; ranking by K i*): 6 fold; EC50 (P. aeruginosa (GRE5288)): 72.6 ± 13.7 µM; EC50 (MRSA (GRE2691)): 76.9 ± 8.6 µM; EC50 (S. aureus (WT)): 28.3 ± 1.8 µM; EC50 (E. faecium (GRE5152)): 99.8 ± 46.9 µM; EC50 (MRSA (GRE2272)): > 200 µM |
| O=C(N[C@H](CO)[C@H](O)c1ccc([N+](=O)[O-])cc1)c1ccc(C(=O)N[C@H](CO)[C@H](O)c2ccc([N+](=O)[O-])cc2)cc1 [Compound 5, N^1,N^4-Bis ((1R,2R)-1,3-dihydroxy-1-(4-nitrophenyl)propan-2-yl)-terephthalamide] | 1.4 ± 0.12 | 0.0105 ± 0.0005 | 0.3 ± 0.03 | 18 ± 1.5 | 25.3 ± 1.9 | 14.06 ± 1.75 | 23.7 ± 1.5 | 16.4 ± 1.5 | 23.5 ± 1.3 | apparent association rate constant, (k on + k off)/K i [1]: 3×10^4 M^1s^-1; fold more potent than homodimers of CAM previously synthesized by Berkov-Zrihen et al. ([1]; direct comparison is not accurate): ~ 10 fold; fold more potent than CAM ([1]; ranking by K i*): 3 fold; EC50 (P. aeruginosa (GRE5288); TSB medium, clinical isolate with MexAB-OprM and MexXY efflux, read-out: EC50): 15.2 ± 1.3 µM; activity relative to CAM in inhibiting the growth of the A2058G mutant (E. coli (A2058G)): equivalent to CAM; fold more active than CAM in inhibiting the A2503C mutant (E. coli (A2503C)): approximately 2 fold; activity compared to CAM in inhibiting the growth of Rosetta(DE3)pLysS E. coli cells [2]: five-fold higher activity; EC50 (MRSA (GRE2691); [4]): 24 ± 3.1 µM; EC50 (S. aureus (WT); [4]): 15.4 ± 1.9 µM; EC50 (E. faecium (GRE5152); TSB medium, 37°C, OD560, read-out: EC50): 40.9 ± 3.8 µM; EC50 (MRSA (GRE2272); [4]): 16.9 ± 4.4 µM |
